Experimental data as given in US12478638B2, “Polymers, compositions and methods for treating hyperuricemia” (WATERSTONE PHARMACEUTICALS (WUHAN) CO., LTD., priority 2021, dated 2025).

System: rat model of hyperuricemia induced by adenine (100 mg/kg)+ethambutol (250 mg/kg)
Assay: Rat model of hyperuricemia induced by adenine + ethambutol; serum UA, CREA, UREA
Type: in vivo
Procedure: 40 rats were randomly divided into 5 groups with 8 rats in each group. The groups were as follows: Blank Group (Vehicle, ig); Model Group (Vehicle, ig); Positive control group (Allopurinol, 10 mg/kg, ig); Compound 1 group (Sevelamer carbonate, 250 mg/kg, ig); Compound 2 group (PAA polymer, 50 mg/kg, ig). Except for Blank group, rats in other groups were modeled according to the chronic modeling method. The modeling method was as follows: rats were given Adenine (100 mg/kg)+Ethambutol (250 mg/kg) by gavage, once a day, for 21 days. Animals in blank group and model group were given equal volume of normal saline by gavage. Animals in positive control group were given 10 mg/kg Alloalcohol by gavage, once in the first week, once in the second week, once a day for 3 days before sampling in the third week. Animals in each group were given intragastric administration once a day for 14 consecutive days from the 8th day of modeling. Blood samples were taken at Day 21 after modeling, and serum samples were separated and stored at −80[…] for biochemical detection.
After 21 days of modeling (14 days of drug treatment), blood samples were taken and serum separation was performed to detect three renal functions (UA, CREA and UREA) (See Table 1 and FIGS. 1a to 1c). Compound 1 is Sevelamer carbonate and Compound 2 is a polyallylamine-based copolymer having a general structure of formula (4) as described herein.

[1] = after 21 days of modeling, adenine + ethambutol model
[2] = serum, after 21 days of modeling (14 days of administration), ig, Allopurinol 10 mg/kg, Compound 1 250 mg/kg, Compound 2 50 mg/kg

**Q.** How did the “level of CREA compared with the model group (in words)” value [1] turn out when `Oc1ncnc2[nH]ncc12` [Allopurinol] was run?
**A.** significantly reduced

**Q.** What about the “level of UA compared with the model group (in words)” value [1] of the same molecule?
**A.** significantly reduced

**Q.** And the “level of UREA compared with the model group (in words)” value [1]?
**A.** significantly reduced

**Q.** What about the CREA [2] of the same molecule?
**A.** 54.73 ± 4.75 ^ μmol/L

**Q.** And the UA [2]?
**A.** 12.88 ± 6.01 µmol/L

**Q.** What about the UREA [2] of the same molecule?
**A.** 5.82 ± 1.10 mmol/L
